Where a name gives a salt, the structure may show the parent alone.
Key:
[1] = target: T1, RORαLBD protein (Homo sapiens, UniProt P35398); test: co-factor recruitment fluorescence resonance energy transfer assay (FRET), Example 1; type: biochemical; conditions: for co-factor recruitment (fluorescence ratios at 665 nm and 612 nm): time resolved measurement, 20 nM RORαLBD, 400 nM biotin-labeled peptide, 2 hrs
T1 construct: made in house; host or cells: Sf9 insect cells (baculovirus, pVL1393)
T1 sequence (P35398 with tags, fused parts or gaps): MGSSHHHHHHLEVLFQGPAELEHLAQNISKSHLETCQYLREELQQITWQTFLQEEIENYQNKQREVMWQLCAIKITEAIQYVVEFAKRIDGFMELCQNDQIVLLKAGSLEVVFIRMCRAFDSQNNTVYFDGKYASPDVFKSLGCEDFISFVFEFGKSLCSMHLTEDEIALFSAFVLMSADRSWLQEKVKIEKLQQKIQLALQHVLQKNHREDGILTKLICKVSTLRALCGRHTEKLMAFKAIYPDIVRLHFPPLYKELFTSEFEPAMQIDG
Experimental: 20 nM RORαLBD protein labeled with equimolar amounts of fluorescent anti-6×His antibody were incubated with 400 nM of the respective biotin-labeled peptide and equimolar amounts of a streptavidin-tagged fluorophore in a buffer containing 50 mM Tris, 100 mM NaCl, 1 mM DTT and 0.1% BSA for 2 hrs.

[2] = target: T2, 6×His-RORalphaLBD protein (Homo sapiens, UniProt P35398); test: TR-FRET assay measuring RORalphaLBD interaction with the LXXLL peptide SRC1−NR1+2, Example 2; type: biochemical; conditions: for binding of co-activator peptide SRC1−NR1+2 to RORα (increase in fluorescence intensity ratio): FIG. 2, increasing concentrations versus solvent only
T2 construct: made in house; host or cells: Sf9 insect cells (baculovirus, pVL1393)
T2 sequence (P35398 with tags, fused parts or gaps): T1 sequence (P35398 with tags, fused parts or gaps)
Description: In this assay, RORα is detected by a specific antibody bound to FRET donor Europium (Eu). The co-activator (CA) is biotin labeled. The biotin label is detecting by streptavidin, which encompasses the FRET acceptor allophycocyanin (APC) marker. If an agonist is bound to RORα, the NR is activated a CA binds to the NR. Accordingly, APC is brought into proximity of Eu, leading to a detecting FRET signal (left panel).
TR-FRET Assay Measuring RORalphaLBD Interaction with the LXXLL Peptide, SRC1−NR1+2
• 6×His-RORalpha: • source: Protein Production (Lab. Thomas Langer) treated with 3 mM LDS, stock solution at 1.5 mg/ml, storage at −20° C., pipetting at room temperature, corresponding to 47.5 μM (with MW 31.6 kD), Concentration in the assay=20 nM • SRC1−NR1+2: • source: JPT Peptide Technologies, stock solution at 250 μM, storage at −20° C., concentration in the assay=400 nM
• anti-6×His antibody: • source: Perkin Elmer #AD0110, stock solutions are at varying concentration with each batch, storage at −20° C., concentration in the assay=20 nM • strep-APC: • source: Perkin Elmer #AD0201, stock solutions are at varying concentration with each batch, storage at +4° C. after reconstitution, concentration in the assay=200 nM (based on streptavidin)
• Cholesterol sulfate: • source: SIGMA #C9523, stock solution in DMSO (30 mM), storage at −20° C.
• 50 mM Tris, 100 mM NaCl, 1 mM DTT, 0.1% Bovine Serum Albumin (add BSA fresh each day), adjust pH to 7.4
• Test plates: CORNING Costar #3639 (96 well half area)
All proteins, labels and compounds were diluted in the assay buffer just prior to assay setup. This assay was realised in 96 well half area plates. The final test volume was 20 μl. It is divided in 2 pipetting steps:
First, a mix containing 6×His-RORalphaLBD protein, BiotinSRC1−NR1+2 peptide, anti-6×His antibody and strep-APC was prepared on ice in the following concentrations: […]
The plates were incubated for 2 h in subdued light at room temperature and read on a Tecan ULTRA at room temperature with 340 nm excitation and 612 nm as Europium reference and 665 nm as APC FRET signal.

Row | Structure (SMILES) | EC50 [1] | co-factor recruitment (fluorescence ratios at 665 nm and 612 nm) [1] | EC50 [2] | binding of co-activator peptide SRC1−NR1+2 to RORα (increase in fluorescence intensity ratio) [2]
1 | CC(C)CCC[C@@H](C)[C@H]1CC[C@H]2[C@@H]3CC=C4C[C@@H](OS(=O)(=O)O)CC[C@]4(C)[C@H]3CC[C@]12C [Cholesterol sulfate] | 22 µM | dose-dependent co-factor recruitment | ~10 µM | dose-dependently induce binding
2 | CC(C)CCC[C@@H](C)[C@H]1CC[C@H]2[C@@H]3CC=C4C[C@@H](O)CC[C@]4(C)[C@H]3CC[C@]12C [Cholesterol] |  | dose-dependent co-factor recruitment |  | dose-dependently induce binding
